# Experiments:
# [1] = tested on: Human immunodeficiency virus 1; assay: Antiviral activity against HIV1 infected in human assessed as change in CD4 expressing T-cell count from baseline at 1000 mg, po administered every day as five enteric-coated tablets followed by a single dose on day 8 measured on day 9 relative to pooled placebo control; assay type: functional
# [2] = tested on: Human immunodeficiency virus 1; assay: Antiviral activity against HIV1 infected in human assessed as change in CD8 expressing T-cell count from baseline at 1000 mg, po administered every day as five enteric-coated tablets followed by a single dose on day 8 measured on day 9 relative to pooled placebo control; assay type: functional
# [3] = Tmax in fasted human at 400 mg, po every 12 hrs measured on day 8; assay type: ADME, organism-based; conditions: in vivo
# [4] = Cmax in fasted human plasma at 400 mg, po every 12 hrs measured on day 8; assay type: ADME, organism-based; set-up: dose 400 mg, route oral
# [5] = Drug concentration at steady state in fasted human plasma at 400 mg, po every 12 hrs measured on day 8; assay type: ADME, organism-based; conditions: read-out: Drug uptake
# [6] = Tmax in fasted human at 600 mg, po every 24 hrs measured on day 8; assay type: ADME, organism-based; conditions: in vivo
# [7] = Cmax in fasted human plasma at 600 mg, po every 24 hrs measured on day 8; assay type: ADME, organism-based; set-up: dose 600 mg, route oral
# [8] = Drug concentration at steady state in fasted human plasma 600 mg, po every 24 hrs measured on day 8; assay type: ADME, organism-based; conditions: read-out: Drug uptake
# [9] = Tmax in fasted human at 800 mg, po every 24 hrs measured on day 8; assay type: ADME, organism-based; conditions: in vivo
# [10] = Cmax in fasted human at 800 mg, po every 24 hrs measured on day 8; assay type: ADME, organism-based; set-up: dose 800 mg, route oral; conditions: in vivo
# [11] = Drug concentration at steady state in fasted human plasma at 800 mg, po every 24 hrs measured on day 8; assay type: ADME, organism-based; conditions: read-out: Drug uptake
# [12] = Tmax in fasted human at 1000 mg, po every 24 hrs measured on day 8; assay type: ADME, organism-based; conditions: in vivo
# [13] = Cmax in fasted human at 1000 mg, po every 24 hrs measured on day 8; assay type: ADME, organism-based; set-up: dose 1000 mg, route oral; conditions: plasma
# [14] = Drug concentration at steady state in fasted human plasma at 1000 mg, po every 24 hrs measured on day 8; assay type: ADME, organism-based; conditions: read-out: Drug uptake
# [15] = Half life in fasted human at 600 mg, po every 24 hrs measured on day 8; assay type: ADME, organism-based; conditions: in vivo
# [16] = Half life in fasted human at 400 mg, po every 24 hrs measured on day 8; assay type: ADME, organism-based; conditions: in vivo
# [17] = AUC (24 hrs) in fasted human at 400 mg, po every 24 hrs measured on day 8; assay type: ADME, organism-based; set-up: time < 24 hr, dose 400 mg, route oral; conditions: plasma
# [18] = AUC (24 hrs) in fasted human at 1000 mg, po every 24 hrs measured on day 8; assay type: ADME, organism-based; set-up: dose 1000 mg, time < 24 hr, route oral; conditions: plasma
# Homo sapiens [19] = assay: Reduction in uric acid level in healthy human serum at 400 mg, po BID; assay type: functional
# Homo sapiens [20] = assay: Reduction in uric acid level in healthy human serum at 600 mg, po administered every day; assay type: functional
# Homo sapiens [21] = assay: Reduction in uric acid level in healthy human serum at 800 mg, po administered every day; assay type: ADME, organism-based; conditions: in vivo
# Homo sapiens [22] = assay: Reduction in uric acid level in healthy human serum at 1000 mg, po administered every day; assay type: ADME, organism-based; conditions: in vivo
# [23] = molecular target: T1, Solute carrier family 22 member 12 (Homo sapiens, UniProt Q96S37); assay: Inhibition of human URAT-1 assessed as increase in renal uric acid excretion; set-up: species or system Kidney
# T1 sequence (Q96S37 whole entry): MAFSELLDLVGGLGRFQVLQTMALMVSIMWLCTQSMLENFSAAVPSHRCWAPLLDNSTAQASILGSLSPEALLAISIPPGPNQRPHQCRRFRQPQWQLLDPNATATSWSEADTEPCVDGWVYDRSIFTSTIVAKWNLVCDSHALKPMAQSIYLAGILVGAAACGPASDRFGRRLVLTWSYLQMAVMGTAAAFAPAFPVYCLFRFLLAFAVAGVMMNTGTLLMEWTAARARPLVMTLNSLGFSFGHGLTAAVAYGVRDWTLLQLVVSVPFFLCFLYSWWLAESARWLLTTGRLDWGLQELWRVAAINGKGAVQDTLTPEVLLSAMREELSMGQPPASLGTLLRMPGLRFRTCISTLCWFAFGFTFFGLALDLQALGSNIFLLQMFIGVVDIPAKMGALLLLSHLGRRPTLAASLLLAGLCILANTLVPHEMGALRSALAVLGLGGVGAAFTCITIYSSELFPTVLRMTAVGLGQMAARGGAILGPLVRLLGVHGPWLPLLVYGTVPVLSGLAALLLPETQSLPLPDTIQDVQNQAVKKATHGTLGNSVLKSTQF
# [24] = tested on: Human immunodeficiency virus 1; assay: Antiviral activity against HIV1; assay type: functional, organism-based
# [25] = Tmax in fasted human plasma at 50 to 300 mg; assay type: ADME, organism-based
# [26] = Tmax in fasted human plasma at 600 mg; assay type: ADME, organism-based
# [27] = Cmax in human plasma at 300 mg administered as multiple doses, BID; assay type: ADME, organism-based; set-up: dose 300 mg
# [28] = Cmax in human plasma at 500 mg administered as multiple doses, BID; assay type: ADME, organism-based; set-up: dose 500 mg
# [29] = AUC (0 to 12 hrs) in human plasma at 300 mg administered as multiple doses, BID; assay type: ADME, organism-based; set-up: time < 12 hr, dose 300 mg
# [30] = AUC (0 to 12 hrs) in human plasma at 500 mg administered as multiple doses, BID; assay type: ADME, organism-based; set-up: dose 500 mg, time < 12 hr
# [31] = Plasma protein binding in human; assay type: ADME, cell-free; conditions: read-out: PPB
# [32] = Plasma protein binding in rat; assay type: ADME, cell-free; conditions: read-out: PPB
compound,measurement,setting,value
O=C(CSc1nnc(Br)n1-c1ccc(C2CC2)c2ccccc12)Nc1ccc(C(=O)O)cc1Cl,Activity,[1],90.48 /mm3
same,Activity,[2],71.04 /mm3
same,Tmax,[3],1.5 h
same,Cmax,[4],2990 ng/mL
same,concentration at 12 h,[5],505 ng/mL
same,Tmax,[6],2 h
same,Cmax,[7],2420 ng/mL
same,concentration at 24 h,[8],276 ng/mL
same,Tmax,[9],3 h
same,Cmax,[10],1910 ng/mL
same,concentration at 24 h,[11],310 ng/mL
same,Tmax,[12],3 h
same,Cmax,[13],3700 ng/mL
same,concentration at 24 h,[14],515 ng/mL
same,half-life,[15],7.09 h
same,half-life,[16],11.3 h
same,AUC at 24 h,[17],12400 ng·h/mL
same,AUC at 24 h,[18],17400 ng·h/mL
same,Activity,Homo sapiens [19],88 µmol/L
same,Activity,Homo sapiens [20],81 µmol/L
same,Activity,Homo sapiens [21],58 µmol/L
same,Activity,Homo sapiens [22],88 µmol/L
same,Activity,[23],Active
same,EC50,[24],1.7 ng/mL
same,Tmax,[25],1.25 h
same,Tmax,[26],4.92 h
same,Cmax,[27],667 ng/mL
same,Cmax,[28],746 ng/mL
same,AUC at 12 h,[29],3160 ng·h/mL
same,AUC at 12 h,[30],3770 ng·h/mL
same,fraction unbound,[31],< 0.01
same,fraction unbound,[32],< 0.01
